pIC50: −log10 of the molar value. Converted amounts (≈) assume the structure as drawn. Like-named read-outs stand apart in the source and are kept apart here.

In general, pIC50 refers to the IC50 on a negative log10 scale, so that one unit is a factor of ten. Read a low pIC50 as a high IC50. For orientation: CC50 means the concentration at which the toxic effect on the cells reaches its halfway point. High values mean lower toxicity to the cells, low ones greater toxicity to the cells. By inhibition is commonly meant how much of the control response was suppressed.

Data set [1] deals with HCoV-229E. Nature of the data set: HCoV-229E-Luc infection assay (luciferase) in Huh-7/TMPRSS2 cells. Type of data set: cell-based. The following applies: Human coronavirus 229E, purified compounds.
Data set [2] concerns HCoV-229E. Nature of the data set: HCoV-229E-Luc infection assay (luciferase) in Huh-7 cells. Type of data set: cell-based. The following applies: Human coronavirus 229E, purified compounds.
Data set [3] in a line: in vitro. The following applies: human, Huh-7 cells.
Method: The cytotoxicity of 25 crude methanolic extracts was tested on Huh-7 cells using an [3-(4,5-dimethylthiazol-2-yl)-5-(3-carboxymethoxyphenyl)-2-(4-sulfophenyl)-2H-tetrazolium]- based (MTS) viability assay. Huh-7 cells were treated with two different concentrations of the crude methanolic extracts (25 and 100 μg/mL) for 24 h. Non-treated control cells were incubated with 0.1% dimethyl sulfoxide (DMSO) in the media.
Huh-7 cells and Vero-81 cells were seeded in 96-well plates and incubated with 100 μL of culture medium containing increasing concentrations of our compounds for 24 h. An MTS based viability assay (CellTiter 96 aqueous nonradioactive cell proliferation assay, Promega, Madison WI, USA) was performed, as recommended by the manufacturer. The absorbance of formazan at 490 nm was detected using ELx808 plate reader (BioTek Instruments Inc., Winooski, VT, USA). Each measurement was performed in triplicate.
For data set [4], the system named is SARS-CoV-2 spike pseudotyped virus. As to conditions: in vitro; cited from earlier work.
Data set [5] has as its system SARS-CoV-2. The data set can be described thus: microbe, parasite or virus in culture. The following applies: read-out: inhibition of SARS-CoV-2 (N protein levels). Format: cell-based.
Data set [6] has as its system hepatitis C virus. More on the design: method as in PMID 30842319. As to conditions: cited from earlier work.
Data set [7] deals with SARS-CoV-2 Mpro enzyme. Further details: method as in PMID 35066300. As to conditions: cited from earlier work.
The test system of data set [8] is Staphylococcus capitis. Further details: method as in PMID 11199141. The following applies: cited from earlier work.
The test system of data set [9] is Candida albicans. More on the design: method as in PMID 11199141. The following applies: cited from earlier work.

`C[C@H]1[C@H](C)CC[C@]2(C(=O)O)CC[C@]3(C)C(=CC[C@@H]4[C@@]5(C)C[C@@H](OC(=O)/C=C\c6ccc(O)cc6)[C@H](O)C(C)(C)[C@@H]5CC[C@]43C)[C@H]12` [F2-3, 3β-hydroxy-2α-cis-p-coumaryloxy-urs-12-en-28-oic acid]: the values for the pIC50 in data set [1] and in data set [2] were 4.85 and 4.84, respectively. This compound gave a CC50 at 24 h in [3] of 52.1 µM.

With `COc1cc(-c2oc3cc(O)cc(O)c3c(=O)c2O)ccc1O` [isorhamnetin], in data set [4], the “antiviral activity against SARS-CoV-2 spike pseudotyped virus” value is “displayed antiviral activity”.

Consider `CC1(C)CC[C@]2(C(=O)O)CC[C@]3(C)C(=CC[C@@H]4[C@@]5(C)CC[C@H](OC(=O)/C=C/c6ccc(O)cc6)C(C)(C)[C@@H]5CC[C@]43C)[C@@H]2C1` [F7-1, 3-O-trans-p-coumaroyl-oleanolic acid], for which the figures for the pIC50 in data set [1] and in [2] were 4.97 and 4.94, respectively. Besides, the inhibition at 50 µM in [5] (Severe acute respiratory syndrome coronavirus 2, 16 h) is 55.5%. Also, in [3], the cytotoxic concentration (CC50) at 24 h came out at 39.3 µM.

Consider `CC1(C)CC[C@]2(C(=O)O)CC[C@]3(C)C(=CC[C@@H]4[C@@]5(C)C[C@@H](OC(=O)/C=C/c6ccc(O)cc6)[C@H](O)C(C)(C)[C@@H]5CC[C@]43C)[C@@H]2C1` [F2-1, 2-O-trans-p-coumaroyl-maslinic acid], for which the pIC50 in data set [1] is 5.04; in [2], 5.07. In data set [3], this compound showed a CC50 at 24 h of 39.9 µM.

On to `C[C@H]1[C@H](C)CC[C@]2(C(=O)O)CC[C@]3(C)C(=CC[C@@H]4[C@@]5(C)C[C@@H](OC(=O)/C=C/c6ccc(O)cc6)[C@H](O)C(C)(C)[C@@H]5CC[C@]43C)[C@H]12` [F2-2, 3β-hydroxy-2α-trans-p-coumaryloxy-urs-12-en-28-oic acid], for which the pIC50 was 4.94 in [1] and 4.92 in data set [2]. Moreover, the CC50 at 24 h in [3] was 44.4 µM.

Regarding `C=Cc1c(C)c(O)cc2ccc3c(C)c(O)ccc3c12` [dehydrojuncusol], the “inhibition of hepatitis C virus replication” value in [6] was “inhibitor of hepatitis C virus replication”.

Turning to `C[C@H]1[C@H](C)CC[C@]2(C(=O)O)CC[C@]3(C)C(=CC[C@@H]4[C@@]5(C)CC[C@H](O)C(C)(C)[C@@H]5CC[C@]43C)[C@H]12` [UA, ursolic acid], in data set [7], the “inhibition of SARS-CoV-2 Mpro enzyme activity” value was “successfully inhibited its activity”.

Consider `CC1(C)CC[C@]2(C(=O)O)CC[C@]3(C)C(=CC[C@@H]4[C@@]5(C)CC[C@H](OC(=O)/C=C/c6ccc(O)c(O)c6)C(C)(C)[C@@H]5CC[C@]43C)[C@@H]2C1` [F4-2, 3-O-trans-caffeoyl-oleanolic acid], for which the negative logarithm of the IC50 (pIC50) in [1] and in data set [2] was 4.94 in each case. The inhibition at 50 µM in data set [5] (Severe acute respiratory syndrome coronavirus 2, 50 µM, Vero-81, 16 h, Western blot) was 54%. This compound yielded a 50% cytotoxic concentration (CC50) at 24 h in data set [3] of 81.4 µM.

As to `CC1(C)CC[C@]2(C(=O)O)CC[C@]3(C)C(=CC[C@@H]4[C@@]5(C)C[C@@H](O)[C@H](OC(=O)/C=C/c6ccc(O)cc6)C(C)(C)[C@@H]5CC[C@]43C)[C@@H]2C1` (relative stereo) [3-β -O-(trans-p-coumaroyl)maslinic acid], the minimum inhibitory concentration in data set [8] and in [9] was 12.5 µg/mL (≈ 20.2 µM) throughout.

The record behind these values is paper PMC10705938, “Discovery of Anti-Coronavirus Cinnamoyl Triterpenoids Isolated from Hippophae rhamnoides during a Screening of Halophytes from the North Sea and Channel Coasts in Northern France” (International Journal of Molecular Sciences, 2023).
